Assay results published in US4820804A, “Analogs of [1,7-di-alanine, des-19-leucine]calcitonin” (Rorer Pharmaceutical Corporation, priority 1987, dated 1989).
Residues, ends and D or L forms follow the SMILES beside them. *: point of attachment. Propionyl = CCC(=O)*

Legend:
[1] = test system: serum calcium concentration; conditions: rat, in vivo, sc
Description: SCT and synthetic salmon calcitonin standard. Rats were divided into four groups of seven animals, and each group was assigned at random to a dose of standard or test solution. Low and high doses were chosen from the linear portion of the dose-response curve. For the salmon calcitonin standard, the values were 0.7 and 2.1 mcg. peptide/100 g. BW. Peptides were given by subcutaneous injection (0.2 ml/100 g. BW) and blood was withdrawn 1 hour later for serum calcium determination. Sera are processed and analyzed within two hours of collection. Results were analyzed within two hours of collection.

[2] = Independent determination of the potency of the standard salmon calcitonin; conditions: standard used in the rat assay, independently determined
Description: The biological potency of [N-alpha-Propionyl-1,7-Di-Ala,Des-19-Leu] salmon calcitonin was determined by comparing the reduction of serum calcium concentration which followed administration by graded doses of [N-alpha-Propionyl-1,7-Di-Ala,Des-19-Leu] SCT and synthetic salmon calcitonin standard. Rats were divided into four groups of seven animals, and each group was assigned at random to a dose of standard or test solution. Low and high doses were chosen from the linear portion of the dose-response curve. For the salmon calcitonin standard, the values were 0.7 and 2.1 mcg. peptide/100 g. BW. Peptides were given by subcutaneous injection (0.2 ml/100 g. BW) and blood was withdrawn 1 hour later for serum calcium determination. Sera are processed and analyzed within two hours of collection. […]. Results were analyzed by a 2×2 parallel line assay [Gaddum, J. H., J. Pharm. Pharmacol., 6, 345 (1953)]. The standard salmon calcitonin used was independently determined to contain greater than 4,000 IU/mg.

Compound	Potency [1] [Iu/mg]	potency content of standard salmon calcitonin [2]
CCC(=O)N[C@@H](CO)C(=O)N[C@@H](CC(N)=O)C(=O)N[C@@H](CC(C)C)C(=O)N[C@@H](CO)C(=O)N[C@H](C(=O)N[C@@H](C)C(=O)N[C@H](C(=O)N[C@@H](CC(C)C)C(=O)NCC(=O)N[C@@H](CCCCN)C(=O)N[C@@H](CC(C)C)C(=O)N[C@@H](CO)C(=O)N[C@@H](CCC(N)=O)C(=O)N[C@@H](CCC(=O)O)C(=O)N[C@@H](CC(C)C)C(=O)N[C@@H](Cc1c[nH]cn1)C(=O)N[C@@H](CCCCN)C(=O)N[C@@H](CCC(N)=O)C(=O)N[C@H](C(=O)N[C@@H](Cc1ccc(O)cc1)C(=O)N1CCC[C@H]1C(=O)N[C@@H](CCCNC(=N)N)C(=O)N[C@H](C(=O)N[C@@H](CC(N)=O)C(=O)N[C@H](C(=O)NCC(=O)N[C@@H](CO)C(=O)NCC(=O)N[C@H](C(=O)N1CCC[C@H]1C(N)=O)[C@@H](C)O)[C@@H](C)O)[C@@H](C)O)[C@@H](C)O)C(C)C)[C@@H](C)O [Des-1-Amino] (Propionyl-SNLSTAVLGKLSQELHKQTYPRTNTGSGTP-NH2)	7300	
CCC(=O)N[C@@H](C)C(=O)N[C@@H](CO)C(=O)N[C@@H](CC(N)=O)C(=O)N[C@@H](CC(C)C)C(=O)N[C@@H](CO)C(=O)N[C@H](C(=O)N[C@@H](C)C(=O)N[C@H](C(=O)N[C@@H](CC(C)C)C(=O)NCC(=O)N[C@@H](CCCCN)C(=O)N[C@@H](CC(C)C)C(=O)N[C@@H](CO)C(=O)N[C@@H](CCC(N)=O)C(=O)N[C@@H](CCC(=O)O)C(=O)N[C@@H](CC(C)C)C(=O)N[C@@H](Cc1c[nH]cn1)C(=O)N[C@@H](CCCCN)C(=O)N[C@@H](CCC(N)=O)C(=O)N[C@H](C(=O)N[C@@H](Cc1ccc(O)cc1)C(=O)N1CCC[C@H]1C(=O)N[C@@H](CCCNC(=N)N)C(=O)N[C@H](C(=O)N[C@@H](CC(N)=O)C(=O)N[C@H](C(=O)NCC(=O)N[C@@H](CO)C(=O)NCC(=O)N[C@H](C(=O)N1CCC[C@H]1C(N)=O)[C@@H](C)O)[C@@H](C)O)[C@@H](C)O)[C@@H](C)O)C(C)C)[C@@H](C)O [N--Alpha-Propionyl, [N alpha-Propionyl, 1,7-Di-Alanine, Des-19-Leucine] salmon calcitonin] (Propionyl-ASNLSTAVLGKLSQELHKQTYPRTNTGSGTP-NH2)	7600	
CC(C)C[C@H](NC(=O)[C@H](CCCCN)NC(=O)CNC(=O)[C@H](CC(C)C)NC(=O)[C@@H](NC(=O)[C@H](C)NC(=O)[C@@H](NC(=O)[C@H](CO)NC(=O)[C@H](CC(C)C)NC(=O)[C@H](CC(N)=O)NC(=O)[C@H](CO)NC(=O)[C@H](C)N)[C@@H](C)O)C(C)C)C(=O)N[C@@H](CO)C(=O)N[C@@H](CCC(N)=O)C(=O)N[C@@H](CCC(=O)O)C(=O)N[C@@H](CC(C)C)C(=O)N[C@@H](Cc1c[nH]cn1)C(=O)N[C@@H](CCCCN)C(=O)N[C@@H](CCC(N)=O)C(=O)N[C@H](C(=O)N[C@@H](Cc1ccc(O)cc1)C(=O)N1CCC[C@H]1C(=O)N[C@@H](CCCNC(=N)N)C(=O)N[C@H](C(=O)N[C@@H](CC(N)=O)C(=O)N[C@H](C(=O)NCC(=O)N[C@@H](CO)C(=O)NCC(=O)N[C@H](C(=O)N1CCC[C@H]1C(N)=O)[C@@H](C)O)[C@@H](C)O)[C@@H](C)O)[C@@H](C)O [Parent, [1,7 Di-Alanine, Des-19-Leucine]Salmon Calcitonin] (H-ASNLSTAVLGKLSQELHKQTYPRTNTGSGTP-NH2)	7400	
Salmon calcitonin [standard salmon calcitonin]		greater than 4,000 IU/mg
